# Columns and labels:
# Assay in all cases: imazapyr whole plant greenhouse test (Example 2)
# Type in all cases: in vivo
# [1] = system: sunflower hybrid H4 (L1 × L4), A205V + A122T
# Procedure: (§1) Seeds were sown in Petri dishes and, after germination, plantlets were transplanted to pots of 10 cm of diameter in a potting media consisting of equal parts of vermiculite, soil and sand. Plants were grown in a greenhouse under natural light conditions supplemented with 400 W sodium halide lamps to provide a 16 hr daylength. Day/night temperatures were 25 and 20 ° C., respectively. At the V2-V4 stage (Schneiter & Miller (1981) Crop Sci. 21:901-903) 10 plants of each genotype were randomly assigned to each treatment consisting of eight imazapyr doses (0, 40, 80, 160, 240, 320, 400 and 480 g ai/ha, corresponding to untreated, 0.5×, 1×, 2×, 3×, 4×, 5× and 6×, respectively), and a zero-time biomass determination. Experiment was arranged as a randomized block design with a full factorial (sunflower line×treatment) arrangement of treatments and 10 replications.
# (§2) On the day of herbicide application ten plants of each genotype were cut at the cotyledonal node and dried at 60° C. for 48 hrs for zero-time dried weight determination.
# (§3) The remaining plants were maintained for 14 days after imazapyr treatment (DAT) and their height, Phytotoxicity Index (PI) and above ground dry biomass were determined Height was determined as the distance between the cotyledonal node and the apex of each plant. Above ground biomass data from each line were converted to biomass accumulation after application by subtracting the appropriate average zero- time biomass from each sample. Dry biomass data were converted to percentages of the untreated control plants within each line to allow direct comparisons between groups.
# [2] = system: sunflower hybrid H1 (L1 × L2), A205V
# Procedure: as §1, §2, §3
# [3] = system: sunflower line L5 (BTK 47), susceptible, WT; settings: L5
# Procedure: as §1, §2, §3
structure (smiles),measurement,setting,value
CC(C)C1(C)N=C(c2ncccc2C(=O)O)NC1=O (stereo not shown) [imazapyr],Phytotoxicity Index (0-9) 14 days after treatment,"[1]; dose 0.5 (0.5x, 40 g ai/ha)",0.0
same,"biomass accumulation 14 days after treatment, % of untreated","[1]; dose 0.5 (0.5x, 40 g ai/ha)",99.479%
same,"plant height 14 days after treatment, % of untreated","[1]; dose 0.5 (0.5x, 40 g ai/ha)",100.0%
same,Phytotoxicity Index (0-9) 14 days after treatment,"[1]; dose 1 (1x, 80 g ai/ha)",0.0
same,"biomass accumulation 14 days after treatment, % of untreated","[1]; dose 1 (1x, 80 g ai/ha)",97.8%
same,"plant height 14 days after treatment, % of untreated","[1]; dose 1 (1x, 80 g ai/ha)",99.6%
same,Phytotoxicity Index (0-9) 14 days after treatment,"[1]; dose 2 (2x, 160 g ai/ha)",0.0
same,"biomass accumulation 14 days after treatment, % of untreated","[1]; dose 2 (2x, 160 g ai/ha)",92.2%
same,"plant height 14 days after treatment, % of untreated","[1]; dose 2 (2x, 160 g ai/ha)",100.0%
same,Phytotoxicity Index (0-9) 14 days after treatment,"[1]; dose 3 (3x, 240 g ai/ha)",0.0
same,"biomass accumulation 14 days after treatment, % of untreated","[1]; dose 3 (3x, 240 g ai/ha)",88.2%
same,"plant height 14 days after treatment, % of untreated","[1]; dose 3 (3x, 240 g ai/ha)",100.0%
same,Phytotoxicity Index (0-9) 14 days after treatment,"[1]; dose 4 (4x, 320 g ai/ha)",0.0
same,"biomass accumulation 14 days after treatment, % of untreated","[1]; dose 4 (4x, 320 g ai/ha)",85.0%
same,"plant height 14 days after treatment, % of untreated","[1]; dose 4 (4x, 320 g ai/ha)",95.0%
same,Phytotoxicity Index (0-9) 14 days after treatment,"[1]; dose 5 (5x, 400 g ai/ha)",0.2
same,"biomass accumulation 14 days after treatment, % of untreated","[1]; dose 5 (5x, 400 g ai/ha)",78.7%
same,"plant height 14 days after treatment, % of untreated","[1]; dose 5 (5x, 400 g ai/ha)",87.2%
same,Phytotoxicity Index (0-9) 14 days after treatment,"[1]; dose 6 (6x, 480 g ai/ha)",0.0
same,"biomass accumulation 14 days after treatment, % of untreated","[1]; dose 6 (6x, 480 g ai/ha)",71.8%
same,"plant height 14 days after treatment, % of untreated","[1]; dose 6 (6x, 480 g ai/ha)",65.5%
same,Phytotoxicity Index (0-9) 14 days after treatment,"[2]; dose 0.5 (0.5x, 40 g ai/ha)",0
same,"biomass accumulation 14 days after treatment, % of untreated","[2]; dose 0.5 (0.5x, 40 g ai/ha)",95.0%
same,"plant height 14 days after treatment, % of untreated","[2]; dose 0.5 (0.5x, 40 g ai/ha)",99.5%
same,Phytotoxicity Index (0-9) 14 days after treatment,"[2]; dose 1 (1x, 80 g ai/ha)",0
same,"biomass accumulation 14 days after treatment, % of untreated","[2]; dose 1 (1x, 80 g ai/ha)",89.6%
same,"plant height 14 days after treatment, % of untreated","[2]; dose 1 (1x, 80 g ai/ha)",99.5%
same,Phytotoxicity Index (0-9) 14 days after treatment,"[2]; dose 2 (2x, 160 g ai/ha)",1.8
same,"biomass accumulation 14 days after treatment, % of untreated","[2]; dose 2 (2x, 160 g ai/ha)",75.5%
same,"plant height 14 days after treatment, % of untreated","[2]; dose 2 (2x, 160 g ai/ha)",78.6%
same,Phytotoxicity Index (0-9) 14 days after treatment,"[2]; dose 3 (3x, 240 g ai/ha)",6.4
same,"biomass accumulation 14 days after treatment, % of untreated","[2]; dose 3 (3x, 240 g ai/ha)",60.4%
same,"plant height 14 days after treatment, % of untreated","[2]; dose 3 (3x, 240 g ai/ha)",48.4%
same,Phytotoxicity Index (0-9) 14 days after treatment,"[2]; dose 4 (4x, 320 g ai/ha)",8.0
same,"biomass accumulation 14 days after treatment, % of untreated","[2]; dose 4 (4x, 320 g ai/ha)",46.5%
same,"plant height 14 days after treatment, % of untreated","[2]; dose 4 (4x, 320 g ai/ha)",28.9%
same,Phytotoxicity Index (0-9) 14 days after treatment,"[2]; dose 5 (5x, 400 g ai/ha)",8.9
same,"biomass accumulation 14 days after treatment, % of untreated","[2]; dose 5 (5x, 400 g ai/ha)",38.9%
same,"plant height 14 days after treatment, % of untreated","[2]; dose 5 (5x, 400 g ai/ha)",25.3%
same,Phytotoxicity Index (0-9) 14 days after treatment,"[2]; dose 6 (6x, 480 g ai/ha)",9.0
same,"biomass accumulation 14 days after treatment, % of untreated","[2]; dose 6 (6x, 480 g ai/ha)",33.9%
same,"plant height 14 days after treatment, % of untreated","[2]; dose 6 (6x, 480 g ai/ha)",27.1%
same,Phytotoxicity Index (0-9) 14 days after treatment,"[3]; dose 0.5 (0.5x, 40 g ai/ha)",9
same,"biomass accumulation 14 days after treatment, % of untreated","[3]; dose 0.5 (0.5x, 40 g ai/ha)",18.3%
same,"plant height 14 days after treatment, % of untreated","[3]; dose 0.5 (0.5x, 40 g ai/ha)",20.14%
same,Phytotoxicity Index (0-9) 14 days after treatment,"[3]; dose 1 (1x, 80 g ai/ha)",9
same,"biomass accumulation 14 days after treatment, % of untreated","[3]; dose 1 (1x, 80 g ai/ha)",15.0%
same,"plant height 14 days after treatment, % of untreated","[3]; dose 1 (1x, 80 g ai/ha)",14.58%
same,Phytotoxicity Index (0-9) 14 days after treatment,"[3]; dose 2 (2x, 160 g ai/ha)",9
same,"biomass accumulation 14 days after treatment, % of untreated","[3]; dose 2 (2x, 160 g ai/ha)",15.0%
same,"plant height 14 days after treatment, % of untreated","[3]; dose 2 (2x, 160 g ai/ha)",14.58%
same,Phytotoxicity Index (0-9) 14 days after treatment,"[3]; dose 3 (3x, 240 g ai/ha)",9
same,"biomass accumulation 14 days after treatment, % of untreated","[3]; dose 3 (3x, 240 g ai/ha)",15.0%
same,"plant height 14 days after treatment, % of untreated","[3]; dose 3 (3x, 240 g ai/ha)",14.58%
same,Phytotoxicity Index (0-9) 14 days after treatment,"[3]; dose 4 (4x, 320 g ai/ha)",9
